{"source": "patent US5759836A", "about": "“Osteoarthritis-associated inducable isoform of nitric oxide synthetase” (priority 1995, dated 1998)", "key": {"iNOS [1]": {"system": "iNOS", "test": "Nitrite accumulation in LPS-stimulated RAW 264.7 murine macrophages (Griess method)", "assay_type": "cell-based", "conditions": "for further inhibition of nitrite accumulation above that observed at 3 mM: suprapharmacological", "procedure": "Effects of NSAIDs on Nitrite Accumulation. […] The expression and activity of iNOS were monitored by estimation of the stable end-product: nitrites.\nconcentrations of NSAIDs for 2 h followed by addition of 100 ng/ml of LPS\nAfter 16-18 h of incubation, the medium was used to estimate the\naccumulation of nitrite by the Greiss method (Green et al., Anal Biochem.\n(§1) The specific activity of iNOS was determined in cellfre\n(§2) extracts at a given time period as described. The nitrite and specific\nactivity data are representative of mean ± SD value, as determined by\nstudent t test, for 10 and 4 independent experiments, respectively. The p\nvalues described are compared with LPSstimulated cells. […]"}, "iNOS [2]": {"system": "iNOS", "test": "Specific activity of iNOS in cell-free extracts of RAW 264.7 cells exposed to drug during LPS induction", "assay_type": "cell-based, murine", "procedure": "Assays for iNOS in Cell-Free Extracts. […] The reaction mixture for iNOS assay (in cell-free extracts) consists of Tris […] (pH 7.8); BSA 1 mg/ml; DTT 1 mM; CaCl2, 2 mM; FAD 10 μM; BH4 10 μM; L-arginine 30 μM; NADPH 1 mM. The assay mixture for cNOS consists of Tris 50 mM (pH 7.8); L-arginine 50 μM; calmodulin 10 μg/ml; BH4 10 μM; CaCl2 2 mM; NADPH 100 μM. RAW 264.7 cells were induced with LPS in the presence and absence of NSAIDs for 16-18 h. […] Cells were re-pelleted at 4° C. and resuspended in Tris buffer (10 mM, pH 7.4) containing 1 mg/ml each chymostatin, antipain, leupeptin and pepstatin, 1 mM DTT and 1 mM PMSF. Cells were lysed in a Polytron PT 1200 homogenizer (Kinematica AG, Switzerland) after 3 cycles of rapid freeze-thawing. The lysate was centrifuged at 16,000 rpm for 60 min at 4° C., and the supernatants were used as cell-free extracts. […] After 20 min the assays were terminated by heating the reaction mixture at 90° C. for 5 min. The precipitates were removed by centrifuging at 15,000 rpm for 20 min. Ten microliters (≈50,000 cpm) of the supernatant was spotted on activated Avicel TLC plates (Analtech, Newark, Del.). The TLC plates were developed in a solvent system consisting of ethanol:water:ammonia (80:16:4). Quantitation of the spot for L-[^3 3H]-citrulline was performed by a Bioscan System 200 Imaging Scanner. A phosphoimager can also be used for such quantification.\nas §1, §2"}, "iNOS [3]": {"system": "iNOS", "test": "In vitro iNOS catalytic activity in cell-free extracts preincubated with drug (L-[3H]-arginine to L-[3H]-citrulline)", "assay_type": "biochemical, murine", "conditions": "20 min preincubation"}, "iNOS [4]": {"system": "iNOS", "test": "iNOS protein expression, Western blot, LPS-treated RAW 264.7 cells", "assay_type": "cell-based, murine", "procedure": "Western Blot Analysis. Equal amounts of protein (50 μg) estimated by BCA reagent (Pierce, Rockford, Ill.) were loaded onto SDS-PAGE gels and stained to verify the concentrations of various protein fractions by examining the intensities of the protein bands on the gels. Western blot analysis was carried out from the same cell extracts. The Western-blotted membrane was probed with a specific anti-iNOS monoclonal antibody, as specified by Transduction Laboratories (Lexington, Ky.). The blots were developed using the ECL Western blot system (Amersham, Arlington Heights, Ill.). Quantitation of the bands was performed using a densitometer from Molecular Dynamics (Sunnyville, Calif.).\nThe protein expression data are represented as\nND = not done. NS = not significant.\nA Western blot analysis of iNOS protein was carried out in cells treated with […] LPS in the presence and absence of NSAIDs for 16-18 h."}, "COX-2": {"molecular_target": "T1, COX-2 (Mus musculus, UniProt Q05769)", "T1 construct": "Cells were incubated with LPS (1 μg/ml) for 16 h to induce COX-2; endogenous in cells; host or cells: RAW 264.7 murine macrophages, LPS-induced", "T1 sequence (Q05769 18-604)": "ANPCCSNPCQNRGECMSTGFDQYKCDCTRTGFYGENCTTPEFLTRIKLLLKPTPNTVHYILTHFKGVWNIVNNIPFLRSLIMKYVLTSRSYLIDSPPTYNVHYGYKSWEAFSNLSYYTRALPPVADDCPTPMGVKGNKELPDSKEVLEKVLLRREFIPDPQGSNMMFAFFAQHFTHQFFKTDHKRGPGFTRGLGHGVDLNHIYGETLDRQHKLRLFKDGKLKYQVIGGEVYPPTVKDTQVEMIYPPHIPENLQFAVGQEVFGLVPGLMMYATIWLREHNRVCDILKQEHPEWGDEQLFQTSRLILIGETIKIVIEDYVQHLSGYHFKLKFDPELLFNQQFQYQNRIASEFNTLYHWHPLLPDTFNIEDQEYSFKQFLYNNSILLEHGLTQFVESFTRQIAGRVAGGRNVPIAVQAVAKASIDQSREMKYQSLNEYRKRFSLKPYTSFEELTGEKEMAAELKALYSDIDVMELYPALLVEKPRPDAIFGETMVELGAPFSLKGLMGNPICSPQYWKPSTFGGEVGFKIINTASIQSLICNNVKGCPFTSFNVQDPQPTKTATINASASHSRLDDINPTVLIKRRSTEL", "assay_type": "cell-based, murine", "conditions": "3 mM"}, "iNOS [5]": {"system": "iNOS", "test": "iNOS expression in stimulated rat chondrosarcomas", "assay_type": "cell-based", "procedure": "NSAIDs were tested in: (FIG. 5A) rat chondrosarcomas stimulated with LPS, and (FIG. 5B) unstimulated OA cartilage (n=3)."}, "OA-NOS [6]": {"system": "OA-NOS", "test": "Nitrite release by OA-affected articular cartilage, ex vivo organ culture", "assay_type": "cell-based, human"}, "NF-κB": {"system": "NF-κB", "conditions": "cited from earlier work"}, "COX": {"system": "COX", "conditions": "cited from earlier work"}, "OA-NOS [7]": {"system": "OA-NOS", "test": "Sensitivity of OA-NOS to agents (Table 3 comparison)"}}, "note": "pIC50: −log10 of the molar value. “And” between values parts separate entries of the source, which are not always exact repeats. Identical values can stand only once. “Also recorded” adds a separate entry of the source."}
{"molecule": "CC(=O)Oc1ccccc1C(=O)O", "note": "[Aspirin, aspirin]", "values": [{"measurement": "Nitrite released, Nitrite", "setting": "iNOS [1]; 1 mM, LPS 100 ng/ml, 16-18 h", "value": "26.6 ± 4.3", "unit": "µM"}, {"measurement": "Nitrite released, Nitrite", "setting": "iNOS [1]; 2 mM, LPS 100 ng/ml, 16-18 h", "value": "22.9 ± 5.3", "unit": "µM"}, {"measurement": "Nitrite released, Nitrite", "setting": "iNOS [1]; 3 mM, LPS 100 ng/ml, 16-18 h", "value": "20.3 ± 3.9", "unit": "µM"}, {"measurement": "further inhibition of nitrite accumulation above that observed at 3 mM", "setting": "iNOS [1]; 5 mM", "value": 50, "unit": "%"}, {"measurement": "further inhibition of nitrite accumulation above that observed at 3 mM", "setting": "iNOS [1]; 10 mM", "value": 80, "unit": "%"}, {"measurement": "inhibition at 1000 µM", "setting": "iNOS [1]; Mus musculus, RAW264.7, read-out: Nitrite released, % inhibition, 1 mM, LPS 100 ng/ml, 16-18 h", "value": 10, "unit": "%"}, {"measurement": "inhibition at 2000 µM", "setting": "iNOS [1]; Mus musculus, RAW264.7, read-out: Nitrite released, % inhibition, 2 mM, LPS-stimulated, 16-18 h", "value": 22, "unit": "%"}, {"measurement": "inhibition at 3000 µM", "setting": "iNOS [1]; Mus musculus, RAW264.7, read-out: Nitrite released, % inhibition, 3 mM, LPS 100 ng/ml, 16-18 h", "value": 32, "unit": "%"}, {"measurement": "Specific activity of iNOS", "setting": "iNOS [2]; 1 mM", "value": "271.7 ± 17.2", "unit": "pmol/min/mg protein"}, {"measurement": "Specific activity of iNOS", "setting": "iNOS [2]; 2 mM", "value": "231.3 ± 29.8", "unit": "pmol/min/mg protein"}, {"measurement": "Specific activity of iNOS", "setting": "iNOS [2]; 3 mM", "value": "162.3 ± 25.9", "unit": "pmol/min/mg protein"}, {"measurement": "Specific activity, % inhibition", "setting": "iNOS [2]; 3 mM, cell-free extracts, 16 h", "value": 47, "unit": "%"}, {"measurement": "inhibition at 3000 µM", "setting": "iNOS [2]; Mus musculus, RAW264.7, 16 h, read-out: Specific activity, % inhibition, 3 mM, cell-free extracts, 16 h", "value": 48, "unit": "%"}, {"measurement": "pIC50", "setting": "iNOS [2]; Mus musculus, RAW264.7, read-out: IC50, specific enzyme activity of iNOS", "value": 2.52}, {"measurement": "inhibition at 1000 µM", "setting": "iNOS [2]; Mus musculus, RAW264.7, read-out: Specific activity, % inhibition, 1 mM", "value": 12, "unit": "%"}, {"measurement": "inhibition at 2000 µM", "setting": "iNOS [2]; Mus musculus, RAW264.7, read-out: Specific activity, % inhibition, 2 mM", "value": 25, "unit": "%"}, {"measurement": "inhibition of iNOS catalytic activity in cell-free extracts", "setting": "iNOS [3]; 0.1 mM", "value": "10-12%"}, {"measurement": "inhibition of iNOS catalytic activity in cell-free extracts (specific activity in in vitro assay)", "setting": "iNOS [3]; 1 mM", "value": "~ 45% and 45-68%"}, {"measurement": "decrease of iNOS expression", "setting": "iNOS [4]; 10 mM, Western blot, 10000 µM", "value": "~ 70%"}, {"measurement": "effect on iNOS expression, Western blot", "setting": "iNOS [4]; LPS, 16-18 h, indomethacin 5 μM", "value": "significant decrease in the expression of iNOS"}, {"measurement": "inhibition at 10000 µM", "setting": "iNOS [4]; Mus musculus, RAW264.7, read-out: decrease of iNOS expression, 10 mM, Western blot", "value": 69, "unit": "%"}, {"measurement": "inhibition at 3000 µM", "setting": "iNOS [4]; Mus musculus, RAW264.7, read-out: inhibition of iNOS protein expression, 3 mM, approximate, densitometry", "value": "~53", "unit": "%"}, {"measurement": "% inhibition of COX-2 specific activity", "setting": "COX-2", "value": "> 75", "unit": "%"}, {"measurement": "inhibition of iNOS expression in rat chondrosarcomas", "setting": "iNOS [5]; 72 h, added 1 h prior to cytokines", "value": "~ 57%"}, {"measurement": "effect on iNOS in rat chondrosarcomas", "setting": "iNOS [5]; LPS/cytokine-stimulated, L-NMMA 500 μM, indomethacin 20 μM", "value": "significant inhibition of iNOS"}, {"measurement": "effect on nitrite accumulation / NOS expression in OA cartilage", "setting": "OA-NOS [6]", "value": "blocked iNOS expression in OA cartilage"}, {"measurement": "rank order of inhibition of spontaneous nitrite accumulation", "setting": "OA-NOS [6]", "value": "aspirin>indomethacin>sodium salicylate"}, {"measurement": "inhibition at 2000 µM", "setting": "OA-NOS [6]; 2 mM, human osteoarthritic cartilage ex vivo, read-out: suppression of accumulation of nitrites", "value": "≥ 50", "unit": "%"}, {"measurement": "activation of NF-κB", "setting": "NF-κB; 5-20 mM, suprapharmacological", "value": "interfere in the activation of NF-κB"}, {"measurement": "NF-κB-dependent transcription", "setting": "NF-κB; aspirin 3 mM, sodium salicylate 5 mM, luciferase reporter", "value": "inhibit NF-κB-dependent transcription"}, {"measurement": "NF-κB activation, gel shift assays", "setting": "NF-κB; same concentrations (aspirin 3 mM; sodium salicylate 5 mM)", "value": "no significant effect on NF-κB activation"}, {"measurement": "COX inhibition", "setting": "COX", "value": "an effective inhibitor of COX"}, {"measurement": "cyclooxygenase and peroxidase activity of COX", "setting": "COX", "value": "inactivates the cyclooxygenase and not the peroxidase activity"}, {"measurement": "sensitivity of OA-NOS", "setting": "OA-NOS [7]", "value": "blocked; also recorded: shows sensitivity"}]}
